Literature values, collected in US20240252580A1, “AMINO ACID HYDRATION FORMULATION AND METHOD OF USE” (The Coca-Cola Company, priority 2021, published 2024).
Peptide text beside a SMILES is read from it.

Details: for effect on sodium and water absorption from the human jejunum: perfusion technique; for dependence of sodium and water absorption on amino acid concentration: saturation not demonstrated over the range of concentrations

Compound | effect on sodium and water absorption from the human jejunum | dependence of sodium and water absorption on amino acid concentration
C[C@H](NC(=O)CN)C(=O)O [Gly-Ala, glycyl-L-alanine] (H-Gly-Ala-OH) | significant stimulation | 
NCC(=O)NCC(=O)O [Gly-Gly, glycyl-glycine] (H-Gly-Gly-OH) | significant stimulation | 
C[C@H](N)C(=O)O [alanine] | significant stimulation | increased linearly with increasing concentration
NCC(=O)O [glycine] | significant stimulation | increased linearly with increasing concentration
